Test results: patent US20050250677A1, “Glycopeptide antibiotic derivatives” (priority 2002, published 2005)
“Also recorded” adds a separate entry of the source. Like-named read-outs stand apart in the source and are kept apart here.

Key:
[1] = system: SARS virus (strain Frankfurt-1); assay: microbe, parasite or virus in culture; assay type: cell-based, human corona (SARS) virus
[2] = system: human lymphocyte Molt4/clone 8; assay: Cytostatic activity assay, Molt4/clone 8 cells; assay type: cell-based; conditions: read-out: IC50 Molt4/C8 (compound concentration required to inhibit tumor cell proliferation by 50%)
[3] = system: murine leukemia L1210; assay: Cytostatic activity assay, L1210 cells; assay type: cell-based; conditions: read-out: IC50 L1210 (compound concentration required to inhibit tumor cell proliferation by 50%)
[4] = system: Vero cells; conditions: read-out: CC50 Vero
[5] = system: FCV; assay: Feline corona virus assay in Feline Crandel kidney cells (MTS); assay type: cell-based
Description: Feline Crandel kidney cells were seeded in 96-well microtiter plates at 24,000 cells/well. Then, 24 hrs later, an appropriate inoculum of FCV is added together with 5-fold dilutions of the test compounds. After 4 days, a MTS/PMS solution was added to each well. Following a 90 min incubation period at 37° C., the optical density of the wells was read at 498 nm in a microplate reader.

[6] = system: HIV-1 (IIIB); assay: Inhibition of HIV-1 (IIIB)-induced cytopathicity (giant cell formation) in CEM cells; assay type: cell-based
Description: (§1) A variety of glycopeptide antibiotic derivatives of vancomycin, eremomycin and teicoplanin including their aglycon derivatives were evaluated for their inhibitory activity against HIV-1 (IIIB) and HIV-2(ROD) in CEM cell cultures.

[7] = system: FCK cells
[8] = system: HIV-2(ROD); assay: Inhibition of HIV-2 (ROD)-induced cytopathicity (giant cell formation) in CEM cells; assay type: cell-based
Description: as §1

[9] = system: human lymphocyte CEM; assay: Cytostatic activity assay, CEM cells; assay type: cell-based; conditions: read-out: IC50 CEM (compound concentration required to inhibit tumor cell proliferation by 50%)
[10] = system: CMV; assay: Anti-CMV assay: virus-induced cytopathicity in HEL cell cultures
[11] = system: VZV (wild-type strains); assay: Anti-VZV assay (wild-type strains): virus-induced cytopathicity in HEL cell cultures; assay type: cell-based, varicella-zoster virus; conditions: HEL cell cultures
[12] = system: HEL cells; conditions: read-out: CC50 (HEL), HEL cells
[13] = system: HEL cells
[14] = SARS virus in Vero cells, read-out: EC50 SARS virus
[15] = FCV in FCK cells, read-out: EC50 FCV
[16] = HIV-1 (IIIB), CEM cell cultures, read-out: EC50 against HIV-1
[17] = read-out: EC50 HIV-1 (concentration required to inhibit HIV-induced giant cell formation by 50%), HIV-1, CEM cell cultures
[18] = read-out: EC50 HIV-2 (concentration required to inhibit HIV-induced giant cell formation by 50%), HIV-2, CEM cell cultures
[19] = read-out: EC50 CMV AD-169, CMV strain AD-169, HEL cell cultures
[20] = VZV strain OKA, read-out: EC50 VZV (OKA)
[21] = VZV strain YS, read-out: EC50 VZV (YS)
[22] = read-out: EC50 CMV Davis, CMV strain Davis, HEL cell cultures

SMILES	EC50 [1, 14] [µM]	IC50 [2] [µM]	IC50 [3] [µM]	CC50 [4] [µM]	EC50 [5, 15] [µM]	EC50 [6, 17] [µM]	CC50 ([7]; read-out: CC50 FCK, FCK cells) [µM]	EC50 [8, 18] [µM]	IC50 [9] [µM]	further results
CCCCc1ccc(CN2CCN(Cc3c(O)cc4c(c3O)-c3cc(ccc3O)C3NC(=O)C5NC(=O)C(CC(N)=O)NC(=O)C(NC(=O)C(CC(C)C)NC)C(O)c6ccc(c(Cl)c6)Oc6cc5cc(c6OC5OC(CO)C(O)C(O)C5OC5CC(C)(N)C(O)C(C)O5)Oc5ccc(cc5Cl)C(O)C(NC3=O)C(=O)NC4C(=O)O)CC2)cc1 (centres unmarked) [Compound 1]	43	> 100	53 ± 9	> 100	30	12 ± 3.5	> 50	22 ± 3.5	> 100	EC50 ([1]; read-out: EC50 against SARS virus): 30 to 43 µM; EC50 ([5]; read-out: EC50 against FCV): 30 to 43 µM; EC50 [6, 16]: 5.5 µM
CCCCc1ccc(CN2CCN(Cc3c(O)cc4c(c3O)-c3cc(ccc3O)C3NC(=O)C5NC(=O)C(CC(N)=O)NC(=O)C(NC(=O)C(CC(C)C)NC)C(O)c6ccc(c(Cl)c6)Oc6cc5cc(c6OC5OC(CO)C(O)C(O)C5OC5CC(C)(N)C(O)C(C)O5)Oc5ccc(cc5)C(OC5CC(C)(N)C(O)C(C)O5)C(NC3=O)C(=O)NC4C(=O)NC)CC2)cc1 (centres unmarked) [Compound 5]	13	17 ± 3	24 ± 0.4	54	5.4	–	28	> 10	40 ± 4	activity against FCV [5]: active; also recorded: pronounced activity; EC50 [6, 16]: 0.43 µM
CCCCCCCCCNCc1c(O)cc2c(c1O)-c1cc(ccc1O)C1NC(=O)C3NC(=O)C4NC(=O)C(Cc5ccc(c(Cl)c5)Oc5cc3cc(c5O)Oc3ccc(cc3Cl)C(O)C(NC1=O)C(=O)NC2C(=O)NCCCN(C)C)NC(=O)C(N)c1ccc(O)c(c1)Oc1cc(O)cc4c1 (centres unmarked) [Compound 21]	–	136 ± 33	43 ± 6	–	–	2.2	–	6.5 ± 0.7	179 ± 1	anti-CMV activity [10]: anti-CMV activity; EC50 [10, 19]: 8 µM; EC50 [11, 20]: 1.3 µM; EC50 [11, 21]: 2 µM; CC50 ([12]; anti-CMV table): 107 µM; CC50 ([12]; anti-VZV table): 107 µM; MTC (HEL) ([13]; anti-CMV table): 5 to 50 µM; MTC (HEL) ([13]; anti-VZV table): 5 to 50 µM
NC1C(=O)NC2Cc3ccc(c(Cl)c3)Oc3cc4cc(c3O)Oc3ccc(cc3Cl)C(O)C3NC(=O)C(NC(=O)C4NC(=O)C(NC2=O)c2cc(O)cc(c2)Oc2cc1ccc2O)c1ccc(O)c(c1)-c1c(O)cc(O)cc1C(C(=O)N1CCN(Cc2ccc4ccccc4c2)CC1)NC3=O (centres unmarked) [Compound 25]	–	47 ± 4	175 ± 44	–	–	2.1 ± 1.3	–	5	113 ± 28	anti-CMV activity [10]: anti-CMV activity; EC50 [10, 19]: 30 µM; EC50 [11, 20]: 1 µM; EC50 [11, 21]: 0.6 µM; CC50 ([12]; anti-CMV table): > 50 µM; CC50 ([12]; anti-VZV table): > 50 µM; MTC (HEL) ([13]; anti-CMV table): 20 to 200 µM; MTC (HEL) ([13]; anti-VZV table): 20 to 200 µM
CCCCCCCCCC[N+](C)(C)CCCNC(=O)C1NC(=O)C2NC(=O)C(NC(=O)C3NC(=O)C4NC(=O)C(Cc5ccc(c(Cl)c5)Oc5cc3cc(c5O)Oc3ccc(cc3Cl)C2O)NC(=O)C(N)c2ccc(O)c(c2)Oc2cc(O)cc4c2)c2ccc(O)c(c2)-c2c(O)cc(O)cc21 (centres unmarked) [Compound 27]	–	28 ± 0.4	9.1 ± 0.9	–	–	1.5 ± 0.42	–	2.3 ± 0.21	18 ± 3	anti-CMV activity [10]: anti-CMV activity; EC50 [10, 19]: ≥ 5 µM; EC50 [10, 22]: 3.5 µM; EC50 [11, 20]: 1 µM; EC50 [11, 21]: 0.8 µM; CC50 ([12]; anti-CMV table): > 200 µM; CC50 ([12]; anti-VZV table): > 200 µM; MTC (HEL) ([13]; anti-CMV table): ≧2-50 μM; MTC (HEL) ([13]; anti-VZV table): ≧2-50 μM
CCCCCCCCCC[N+](C)(C)CCCNCc1c(O)cc2c(c1O)-c1cc(ccc1O)C1NC(=O)C3NC(=O)C4NC(=O)C(Cc5ccc(c(Cl)c5)Oc5cc3cc(c5O)Oc3ccc(cc3Cl)C(O)C(NC1=O)C(=O)NC2C(=O)NCCC[N+](C)(C)CCCCCCCCCC)NC(=O)C(N)c1ccc(O)c(c1)Oc1cc(O)cc4c1 (centres unmarked) [Compound 37]	–	19 ± 12	12 ± 2	–	–	1.6 ± 0.58	–	4.3 ± 0.58	9.4 ± 1.9	EC50 [10, 19]: > 5 µM; EC50 [10, 22]: 3.5 µM; EC50 [11, 20]: 1.5 µM; EC50 [11, 21]: > 2 µM; CC50 ([12]; anti-CMV table): 43 µM; CC50 ([12]; anti-VZV table): 43 µM; MTC (HEL) ([13]; anti-CMV table): ≧2-20 μM; MTC (HEL) ([13]; anti-VZV table): ≧2-20 μM
COC(=O)C1NC(=O)C2NC(=O)C(NC(=O)C(NC(=O)OC(C)(C)C)c3cc(Oc4ccc(CC(NC(=O)OCc5ccccc5)C(=O)O)cc4Cl)c(O)c(c3)Oc3ccc(cc3Cl)C2O)c2ccc(O)c(c2)-c2c1cc(O)c(CNC1C3CC4CC(C3)CC1C4)c2O (centres unmarked) [Compound 53]	29	122 ± 13	95 ± 10	> 100	36	17 ± 3.5	–	11 ± 5.7	240 ± 13	CC50 [7]: ≥ 100 µM
COC(=O)C1NC(=O)C2NC(=O)C(NC(=O)C(N)c3cc(Oc4ccc(CC(NC(=O)OCc5ccccc5)C(=O)O)cc4Cl)c(O)c(c3)Oc3ccc(cc3Cl)C2O)c2ccc(O)c(c2)-c2c1cc(O)c(CNC1C3CC4CC(C3)CC1C4)c2O (centres unmarked) [Compound 54]	47	> 250	181 ± 4	> 100	19	17 ± 3.5	–	37 ± 18	> 250	CC50 [7]: > 50 µM
NC1Cc2ccc(c(Cl)c2)Oc2cc3cc(c2O)Oc2ccc(cc2Cl)C(O)C2NC(=O)C(NC(=O)C3NC(=O)C(c3cc(O)cc(Oc4cc(C5NC(=S)N(c6ccccc6)C5=O)ccc4O)c3)NC1=O)c1ccc(O)c(c1)-c1c(cc(O)c(CNC3C4CC5CC(C4)CC3C5)c1O)C(C(=O)O)NC2=O (centres unmarked) [Compound 55]	31	≥ 250	73 ± 24	> 100	22	–	–	–	242 ± 11	EC50 [6, 16]: 13 µM; CC50 [7]: > 100 µM; EC50 ([8]; HIV-2(ROD), CEM cell cultures, read-out: EC50 against HIV-2): 17 µM
CCCCCCCCCCCCNCc1c(O)cc2c(c1O)-c1cc(ccc1O)C1NC(=O)C3NC(=O)C(CC(N)=O)NC(=O)C(NC(=O)C(CC(C)C)NC)C(O)c4ccc(c(Cl)c4)Oc4cc3cc(c4OC3OC(CO)C(O)C(O)C3OC3CC(C)(N)C(O)C(C)O3)Oc3ccc(cc3)C(OC3CC(C)(N)C(O)C(C)O3)C(NC1=O)C(=O)NC2C(=O)O (centres unmarked) [Compound 64]	31	–	–	> 100	8.2	–	75	–	–	activity against FCV [5]: active
CNC(CC(C)C)C(=O)NC1C(=O)NC(CC(N)=O)C(=O)NC2C(=O)NC3C(=O)NC(C(=O)NC(C(=O)N(C(=O)NC4CCCCC4)C4CCCCC4)c4cc(O)cc(O)c4-c4cc3ccc4O)C(O)c3ccc(cc3)Oc3cc2cc(c3O)Oc2ccc(cc2Cl)C1O (centres unmarked) [Compound 102]	68	> 250	> 250	> 100	–	7.5 ± 4.8	> 100	32.5 ± 3.5	> 250	–
NC1C(=O)NC2Cc3ccc(c(Cl)c3)Oc3cc4cc(c3O)Oc3ccc(cc3Cl)C(O)C3NC(=O)C(NC(=O)C4NC(=O)C(NC2=O)c2cc(O)cc(c2)Oc2cc1ccc2O)c1ccc(O)c(c1)-c1c(O)cc(O)cc1C(C(=O)O)NC3=O (centres unmarked) [Compound 159]	28	–	–	> 100	9.9	–	85	–	–	–
NC1C(=O)NC2Cc3ccc(c(Cl)c3)Oc3cc4cc(c3O)Oc3ccc(cc3Cl)C(O)C3NC(=O)C(NC(=O)C4NC(=O)C(NC2=O)c2cc(O)cc(c2)Oc2cc1ccc2O)c1ccc(O)c(c1)-c1c(O)cc(O)cc1C(C(=O)NC1CC2CCC1C2)NC3=O (centres unmarked) [Compound 162]	22	–	–	> 100	4.7	4.5	≥ 100	11	–	–
O=C(NC1C(=O)NC2Cc3ccc(c(Cl)c3)Oc3cc4cc(c3O)Oc3ccc(cc3Cl)C(O)C3NC(=O)C(NC(=O)C4NC(=O)C(NC2=O)c2cc(O)cc(c2)Oc2cc1ccc2O)c1ccc(O)c(c1)-c1c(O)cc(O)cc1C(C(=O)O)NC3=O)C(=O)c1c[nH]c2ccccc12 (centres unmarked) [Compound 163]	26	–	–	> 100	2.2	10	63	15	–	–
